Reference: US20230271950A1, “ANTIBACTERIAL PICOLINAMIDE COMPOUNDS” (University of Notre Dame Du Lac, priority 2020, published 2023)
Converted amounts (≈) assume the structure as drawn. Like-named read-outs stand apart in the source and are kept apart here.

Tests used:
E. faecium NCTC7171 = assay: MIC against E. faecium; assay type: cell-based, Enterococcus faecium; details: Enterococcus faecium, NCTC7171; E. faecium NCTC 7171; Table 10, unit inferred; read-out: Activity (MIC) against E. faecium
S. aureus ATCC29213 = assay: MIC against MSSA; assay type: cell-based, Staphylococcus aureus; details: Staphylococcus aureus; MSSA ATCC 29213; Table 10, unit inferred; read-out: Activity (MIC) against S. aureus
MRSA (NRS70, NRS119) = assay: MIC against MRSA strains; assay type: cell-based, Staphylococcus aureus; details: for MIC: Staphylococcus aureus
C. difficile = assay: MIC by broth microdilution against C. difficile strains; assay type: cell-based, Clostridioides difficile; details: for MIC: Clostridioides difficile; for Selectivity: MIC MRSA/MIC C. difficile, Table 3; for MIC C. difficile: ATCC 43255, ribotype 087
[1] = NRS70 strain, Table 3 (SAR^2 and SAR^3), read-out: MIC MRSA
[2] = ATCC43255, ATCC 43255, ribotype 087, Table 3 (SAR^2 and SAR^3), read-out: MIC C. difficile
[3] = MRSA strain NRS70, read-out: MIC against MRSA
[4] = NRS70 strain, Table 2 (SAR^1), read-out: MIC MRSA
[5] = ATCC43255, ATCC 43255, ribotype 087, Table 2 (SAR^1), read-out: MIC C. difficile
[6] = ATCC43255, C. difficile ATCC 43255, read-out: MIC against C. difficile

Row | SMILES | MIC (MRSA (NRS70, NRS119); [1]) [µg/mL] | MIC (C. difficile; [2]) [µg/mL] | Selectivity (C. difficile) | further results
1 | O=C(Nc1ncco1)c1ccnc(Oc2cccc(C(F)(F)F)c2)c1 [Compound 103, N-(Oxazol-2-yl)-2-(3-(trifluoromethyl)phenoxy)isonicotinamide] |  |  |  | MIC (E. faecium NCTC7171): 1 µg/mL (≈ 2.86 µM); MIC (S. aureus ATCC29213): 1 µg/mL (≈ 2.86 µM)
2 | O=C(Nc1ncco1)c1ccnc(-c2cc(F)cc(Cl)c2)c1 [Compound 43, 2-(3-Chloro-5-fluorophenyl)-N-(oxazol-2-yl)isonicotinamide] | 0.0625 (≈ 0.197 µM) | 0.12 (≈ 0.378 µM) | 0.5 | MIC (E. faecium NCTC7171): 0.5 µg/mL (≈ 1.57 µM); MIC (S. aureus ATCC29213): 0.25 µg/mL (≈ 0.787 µM)
3 | O=C(Nc1ncco1)c1ccnc(Oc2ccc(Cl)c(F)c2)c1 [Compound 102, 2-(4-Chloro-3-fluorophenoxy)-N-(oxazol-2-yl)isonicotinamide] |  |  |  | MIC (E. faecium NCTC7171): 2 µg/mL (≈ 5.99 µM); MIC (S. aureus ATCC29213): 1 µg/mL (≈ 3 µM)
4 | O=C(Nc1ncco1)c1ccnc(Oc2cccc(OC(F)(F)F)c2)c1 [Compound 105, N-(Oxazol-2-yl)-2-(3-(trifluoromethoxy)phenoxy)isonicotinamide] |  |  |  | MIC (E. faecium NCTC7171): 16 µg/mL (≈ 43.8 µM); MIC (S. aureus ATCC29213): 1 µg/mL (≈ 2.74 µM)
5 | O=C(Nc1ncco1)c1cccc(-c2ccc(F)c(F)c2)n1 [Compound 80, 6-(3,4-Difluorophenyl)-N-(oxazol-2-yl)picolinamide] | 64 (≈ 212 µM) | ≥ 16 | ≤ 4 | 
6 | O=C(Nc1ncco1)c1cccc(-c2ccc(F)cc2)n1 [Compound 79, 6-(4-Fluorophenyl)-N-(oxazol-2-yl)picolinamide] | 32 (≈ 113 µM) | ≥ 16 | ≤ 2 | 
7 | COc1ccc(-c2cc(C(=O)Nc3ncco3)ccn2)cc1 [Compound 51, 2-(4-Methoxyphenyl)-N-(oxazol-2-yl)isonicotinamide] | 8 (≈ 27.1 µM) | 4 (≈ 13.5 µM) | 2 | 
8 | CC(C)(C)OC(=O)NCCCCCCOC(=O)c1cnc(NC(=O)c2ccnc(-c3ccc(Cl)c(Cl)c3)c2)o1 [Compound 27, 6-((Tert-butoxycarbonyl)amino)hexyl 2-(2-(3,4-dichlorophenyl)isonicotinamido) oxazole-5-carboxylate] |  |  |  | MIC MRSA (MRSA (NRS70, NRS119); NRS70 strain, Table 2 (SAR^1)): 16 µg/mL (≈ 27.7 µM); MIC C. difficile (C. difficile; Table 2 (SAR^1)): 8 µg/mL (≈ 13.9 µM)
9 | O=C(Nc1ncco1)c1cc(-c2ccc(F)c(Cl)c2)ncc1F [Compound 73, 2-(3-Chloro-4-fluorophenyl)-5-fluoro-N-(oxazol-2-yl)isonicotinamide] | 2 (≈ 5.96 µM) | 0.5 (≈ 1.49 µM) | 4 | 
10 | O=C(Nc1ncco1)c1cncc(-c2ccc(Cl)c(Cl)c2)n1 [Compound 86, 6-(3,4-Dichlorophenyl)-N-(oxazol-2-yl)pyrazine-2-carboxamide] | 4 (≈ 11.9 µM) | 8 (≈ 23.9 µM) | 0.5 | 
11 | Cc1nnc(NC(=O)c2ccnc(-c3ccc(Cl)c(Cl)c3)c2)o1 [Compound 19, 2-(3,4-Dichlorophenyl)-N-(5-methyl-1,3,4-oxadiazol-2-yl)isonicotinamide] |  |  |  | MIC (MRSA (NRS70, NRS119); [3]): ≥ 64 µg/mL; MIC (MRSA (NRS70, NRS119); [4]): ≥ 256 µg/mL; MIC (C. difficile; [5]): 64 µg/mL (≈ 183 µM); MIC (C. difficile; [6]): ≥ 64 µg/mL
12 | O=C(Nc1ccon1)c1ccnc(-c2ccc(Cl)c(Cl)c2)c1 [Compound 18, 2-(3,4-Dichlorophenyl)-N-(isoxazol-3-yl)isonicotinamide] |  |  |  | MIC (MRSA (NRS70, NRS119); [3]): ≥ 64 µg/mL; MIC (MRSA (NRS70, NRS119); [4]): ≥ 256 µg/mL; MIC (C. difficile; [5]): ≥ 128 µg/mL; MIC (C. difficile; [6]): ≥ 64 µg/mL
13 | C#CCCCCCOC(=O)c1ccc2oc(NC(=O)c3cc(Oc4ccc(F)c(F)c4)ccn3)nc2c1 [Compound 117, Hept-6-yn-1-yl 2-(4-(3,4-difluorophenoxy)picolinamido)benzo[d]oxazole-5-carboxylate] |  |  |  | MIC (E. faecium NCTC7171): 128 µg/mL (≈ 253 µM); MIC (S. aureus ATCC29213): 32 µg/mL (≈ 63.3 µM)
14 | O=C(Nc1ncco1)c1ccnc(-c2cc(F)cc(F)c2)c1 [Compound 42, 2-(3,5-Difluorophenyl)-N-(oxazol-2-yl)isonicotinamide] | 8 (≈ 26.6 µM) | 0.5 (≈ 1.66 µM) | 16 | 
15 | O=C(Nc1ncco1)c1ccnc(-c2cccc(C(F)(F)F)c2)n1 [Compound 85, N-(Oxazol-2-yl)-2-(3-(trifluoromethyl)phenyl)pyrimidine-4-carboxamide] | 2 (≈ 5.98 µM) | 2 (≈ 5.98 µM) | 1 | 
16 | O=C(Nc1ncco1)c1ccnc(-c2cnc3ccccc3c2)c1 [Compound 61, N-(Oxazol-2-yl)-2-(quinolin-3-yl)isonicotinamide] | 16 (≈ 50.6 µM) | 4 (≈ 12.6 µM) | 4 | 

Row | SMILES | MIC (MRSA (NRS70, NRS119); [1]) [µg/mL] | MIC (C. difficile; [2]) [µg/mL] | Selectivity (C. difficile) | further results
17 | O=C(Nc1ncco1)c1cccc(-c2cccc(Cl)c2)n1 [Compound 76, 6-(3-Chlorophenyl)-N-(oxazol-2-yl)picolinamide] | 4 (≈ 13.3 µM) | 8 (≈ 26.7 µM) | 0.5 | 
18 | O=C(Nc1ncc(C(=O)OCCCCCCO)o1)c1ccnc(-c2ccc(Cl)c(Cl)c2)c1 [Compound 26, 6-Hydroxyhexyl 2-(2-(3,4-dichlorophenyl)isonicotinamido)oxazole-5-carboxylate] |  |  |  | MIC (MRSA (NRS70, NRS119); [4]): 0.25 µg/mL (≈ 0.523 µM); MIC (C. difficile; [5]): 0.25 µg/mL (≈ 0.523 µM)
19 | CCOC(=O)c1cnc(NC(=O)c2ccnc(-c3ccc(Cl)c(Cl)c3)c2)o1 [Compound 23, Ethyl 2-(2-(3,4-dichlorophenyl)isonicotinamido)oxazole-5-carboxylate] |  |  |  | MIC (MRSA (NRS70, NRS119); [4]): 0.06 µg/mL (≈ 0.148 µM); MIC (C. difficile; [5]): 0.0625 µg/mL (≈ 0.154 µM)
20 | O=C(Nc1ncco1)c1cccc(-c2ccc(F)c(Cl)c2)n1 [Compound 77, 6-(3-Chloro-4-fluorophenyl)-N-(oxazol-2-yl)picolinamide] | 8 (≈ 25.2 µM) | 8 (≈ 25.2 µM) | 1 | 
21 | O=C(Nc1ncco1)c1cc(-c2ccc(OC(F)(F)F)cc2)ccn1 [Compound 95, N-(Oxazol-2-yl)-4-(4-(trifluoromethoxy)phenyl)picolinamide] | 128 (≈ 366 µM) | 0.25 (≈ 0.716 µM) | 512 | 
22 | O=C(Nc1ncco1)c1ccnc(Oc2ccc(F)c(Cl)c2)c1 [Compound 101, 2-(3-Chloro-4-fluorophenoxy)-N-(oxazol-2-yl)isonicotinamide] |  |  |  | MIC (E. faecium NCTC7171): 2 µg/mL (≈ 5.99 µM); MIC (S. aureus ATCC29213): 1 µg/mL (≈ 3 µM)
23 | O=C(Nc1ncco1)c1ccnc(-c2ccccc2Cl)c1 [Compound 34, 2-(2-Chlorophenyl)-N-(oxazol-2-yl)isonicotinamide] | 8 (≈ 26.7 µM) | 4 (≈ 13.3 µM) | 2 | 
24 | O=C(Nc1ncco1)c1cc(-c2ccc(Cl)c(F)c2)ncc1F [Compound 74, 2-(4-Chloro-3-fluorophenyl)-5-fluoro-N-(oxazol-2-yl)isonicotinamide] | 2 (≈ 5.96 µM) | 0.25 (≈ 0.745 µM) | 8 | 
25 | O=C(Nc1ncco1)c1ccnc(-c2cccc(Cl)c2)c1F [Compound 69, 2-(3-Chlorophenyl)-3-fluoro-N-(oxazol-2-yl)isonicotinamide] | 2 (≈ 6.3 µM) | 1 (≈ 3.15 µM) | 2 | 
26 | O=C(Nc1ncco1)c1cncc(-c2ccc(F)c(Cl)c2)c1 [Compound 81, 5-(3-Chloro-4-fluorophenyl)-N-(oxazol-2-yl)nicotinamide] | 8 (≈ 25.2 µM) | 2 (≈ 6.3 µM) | 4 | 
27 | CC(C)(C)OC(=O)N1CCN(C(=O)c2cnc(NC(=O)c3ccnc(-c4ccc(Cl)c(Cl)c4)c3)o2)CC1 [Compound 30, Tert-butyl 4-(2-(2-(3,4-Dichlorophenyl)isonicotinamido)oxazole-5-carbonyl) piperazine-1-carboxylate] |  |  |  | MIC MRSA (MRSA (NRS70, NRS119); NRS70 strain, Table 2 (SAR^1)): 2 µg/mL (≈ 3.66 µM); MIC C. difficile (C. difficile; Table 2 (SAR^1)): 0.25 µg/mL (≈ 0.458 µM)
28 | O=C(Nc1ncco1)c1ccnc(Oc2cccc(Cl)c2)c1 [Compound 100, 2-(3-Chlorophenoxy)-N-(oxazol-2-yl)isonicotinamide] |  |  |  | MIC (E. faecium NCTC7171): 2 µg/mL (≈ 6.33 µM); MIC (S. aureus ATCC29213): 1 µg/mL (≈ 3.17 µM)
29 | O=C(Nc1ncco1)c1ccnc(OCCC(F)(F)F)c1 [Compound 65, N-(Oxazol-2-yl)-2-(3,3,3-trifluoropropoxy)isonicotinamide] | 8 (≈ 26.6 µM) | 4 (≈ 13.3 µM) | 2 | 
30 | O=C(Nc1ncco1)c1ccnc(Oc2ccc(OC(F)(F)F)cc2)c1 [Compound 104, N-(Oxazol-2-yl)-2-(4-(trifluoromethoxy)phenoxy)isonicotinamide] |  |  |  | MIC (E. faecium NCTC7171): 16 µg/mL (≈ 43.8 µM); MIC (S. aureus ATCC29213): 1 µg/mL (≈ 2.74 µM)
31 | O=C(Nc1nc2ncccc2o1)c1ccnc(-c2ccc(Cl)c(Cl)c2)c1 [Compound 22, 2-(3,4-Dichlorophenyl)-N-(oxazolo[4,5-b]pyridin-2-yl)isonicotinamide] |  |  |  | MIC (MRSA (NRS70, NRS119); [4]): 0.25 µg/mL (≈ 0.649 µM); MIC (C. difficile; [5]): 0.0625 µg/mL (≈ 0.162 µM)
32 | O=C(Nc1ncco1)c1cccc(-c2ccc(Cl)c(Cl)c2)n1 [Compound 75, 6-(3,4-Dichlorophenyl)-N-(oxazol-2-yl)picolinamide] | 2 (≈ 5.99 µM) | ≥ 16 | ≤ 0.125 | 
